± gives the expanded uncertainty stated by the source.
How the values were obtained:
[1] = for surface tension liquid-gas: Pendant drop shape; for mass density: 101.3 kPa, Liquid, vibrating tube
[2] = xn = mol fraction of the nth substance listed; settings: x1 = 1; for mass density: 101.3 kPa, Liquid, vibrating tube; for surface tension liquid-gas: Pendant drop shape

CN1CCCC1=O [N-methylpyrrolidone]
[1]
Settings	surface tension liquid-gas [mN/m]
277.84 K	42.61 ± 0.42
287.8 K	41.35 ± 0.41
297.81 K	40.25 ± 0.4
307.85 K	39.1 ± 0.39
317.85 K	37.91 ± 0.38
327.89 K	36.8 ± 0.37
337.88 K	35.66 ± 0.36

CC(C)=O [acetone]
[1]
Settings	surface tension liquid-gas [mN/m]
287.81 K	23.94 ± 0.27
297.82 K	22.78 ± 0.26
307.86 K	21.59 ± 0.25
317.86 K	20.33 ± 0.24
327.88 K	19.01 ± 0.23

C1CCCCC1 [cyclohexane]
[1]
Settings	surface tension liquid-gas [mN/m]
279.33 K	26.37 ± 0.29
282.82 K	25.99 ± 0.29
287.81 K	25.34 ± 0.28
297.82 K	24.2 ± 0.27
307.86 K	23.02 ± 0.26
317.86 K	21.84 ± 0.25
327.88 K	20.71 ± 0.24
337.93 K	19.57 ± 0.24

CN(C)C=O [dimethylformamide]
[1]
Settings	mass density [kg/m3]	surface tension liquid-gas [mN/m]
277.85 K	–	38.16 ± 0.39
278.15 K	963 ± 0.3	–
283.15 K	958.3 ± 0.3	–
287.81 K	–	36.96 ± 0.38
288.15 K	953.7 ± 0.3	–
293.15 K	949.1 ± 0.3	–
297.82 K	–	35.83 ± 0.37
298.15 K	944.5 ± 0.3	–
303.15 K	939.9 ± 0.3	–
307.86 K	–	34.65 ± 0.36
308.15 K	935.4 ± 0.3	–
313.15 K	930.9 ± 0.3	–
317.86 K	–	33.37 ± 0.35
318.15 K	926.3 ± 0.3	–
323.15 K	921.7 ± 0.3	–
327.88 K	–	32.03 ± 0.34
327.89 K	–	32.03 ± 0.34
328.15 K	917.9 ± 0.2	–
333.15 K	913.2 ± 0.2	–

CCCCCCC [heptane]
[1]
Settings	mass density [kg/m3]	surface tension liquid-gas [mN/m]
277.93 K	–	21.73 ± 0.27
278.15 K	696.3 ± 0.4	–
282.83 K	–	21.18 ± 0.26
283.15 K	692.2 ± 0.4	–
287.81 K	–	20.7 ± 0.26
288.15 K	688 ± 0.4	–
292.81 K	–	20.17 ± 0.26
293.15 K	683.8 ± 0.4	–
297.82 K	–	19.63 ± 0.25
298.15 K	679.5 ± 0.4	–
302.83 K	–	19.15 ± 0.25
303.15 K	675.2 ± 0.4	–
307.86 K	–	18.68 ± 0.24
308.15 K	670.9 ± 0.4	–
312.86 K	–	18.17 ± 0.24
313.15 K	666.5 ± 0.3	–
317.86 K	–	17.76 ± 0.24
318.15 K	662.1 ± 0.3	–
322.86 K	–	17.22 ± 0.23
323.15 K	657.7 ± 0.3	–
327.88 K	–	16.68 ± 0.23
328.15 K	653.2 ± 0.3	–
332.91 K	–	16.21 ± 0.23
333.15 K	648.7 ± 0.3	–
337.88 K	–	15.79 ± 0.22
342.92 K	–	15.29 ± 0.22

CCCCCCC [heptane] + Cc1ccccc1
[2]
Settings	mass density [kg/m3]	surface tension liquid-gas [mN/m]
278.15 K	696.3 ± 0.4	–
283.15 K	692.2 ± 0.4	–
287.81 K	–	20.7 ± 0.26
288.15 K	688 ± 0.4	–
293.15 K	683.8 ± 0.4	–
297.82 K	–	19.63 ± 0.25
298.15 K	679.5 ± 0.4	–
303.15 K	675.2 ± 0.4	–
307.86 K	–	18.68 ± 0.24
308.15 K	670.9 ± 0.4	–
313.15 K	666.5 ± 0.3	–
317.86 K	–	17.76 ± 0.24
318.15 K	662.1 ± 0.3	–
323.15 K	657.7 ± 0.3	–
327.88 K	–	16.68 ± 0.23
328.15 K	653.2 ± 0.3	–
333.15 K	648.7 ± 0.3	–

Cc1ccccc1 [toluene]
[1]
Settings	mass density [kg/m3]	surface tension liquid-gas [mN/m]
277.85 K	–	30.11 ± 0.32
278.15 K	880.3 ± 0.2	–
283.15 K	875.9 ± 0.2	–
287.81 K	–	28.93 ± 0.31
288.15 K	871.4 ± 0.2	–
293.15 K	866.9 ± 0.2	–
297.82 K	–	27.76 ± 0.3
298.15 K	862.4 ± 0.2	–
302.83 K	–	27.17 ± 0.3
303.15 K	857.8 ± 0.2	–
307.86 K	–	26.6 ± 0.29
308.15 K	853.2 ± 0.2	–
312.87 K	–	26.03 ± 0.29
313.15 K	848.6 ± 0.2	–
317.86 K	–	25.46 ± 0.28
318.15 K	843.9 ± 0.2	–
323.15 K	839.2 ± 0.2	–
327.88 K	–	24.29 ± 0.27
328.15 K	834.5 ± 0.2	–
333.15 K	829.8 ± 0.2	–
337.88 K	–	23.22 ± 0.26

Cc1ccccc1 [toluene] + CN(C)C=O
[2]
Settings	mass density [kg/m3]	surface tension liquid-gas [mN/m]
278.15 K	880.3 ± 0.2	–
283.15 K	875.9 ± 0.2	–
287.81 K	–	28.93 ± 0.31
288.15 K	871.4 ± 0.2	–
293.15 K	866.9 ± 0.2	–
297.82 K	–	27.76 ± 0.3
298.15 K	862.4 ± 0.2	–
303.15 K	857.8 ± 0.2	–
307.86 K	–	26.6 ± 0.29
308.15 K	853.2 ± 0.2	–
313.15 K	848.6 ± 0.2	–
317.86 K	–	25.46 ± 0.28
318.15 K	843.9 ± 0.2	–
323.15 K	839.2 ± 0.2	–
327.88 K	–	24.29 ± 0.29
328.15 K	834.5 ± 0.2	–
333.15 K	829.8 ± 0.2	–
